Test results: US10092620B2, “Uses of cyclic peptides for treating and preventing atherosclerosis” (THE SCRIPPS RESEARCH INSTITUTE, priority 2013, dated 2018)
“Also recorded” adds a separate entry of the source. Non-standard residues stand in square brackets, D forms with d. Residues, ends and D or L forms follow the SMILES beside them.

Tested on: mouse macrophage J774 cells
Assay: cholesterol efflux from mouse macrophage cells incubated with peptide-treated human plasma
Assay type: cell-based
Method: Selected cyclic D,L-α-peptides were further evaluated for their ability to promote cellular cholesterol efflux from mouse macrophage J774 cells. A main factor for HDL anti-atherogenicity is its role in reverse cholesterol transport, of which cellular cholesterol efflux is a critical component. To measure efflux mediated by the cyclic D,L-α-peptides, cholesterol-laden cells were incubated with peptide-treated plasma for 4 h, after which the level of cholesterol effluxed to the media was measured as described in Sankaranarayanan et al., J. Lipid Res. 52, 2332-2340, 2011.
Preparation of labeling medium: These procedures were modified from that reported in Sankaranarayanan et al., J. Lipid Res. 52, 2332-2340, 2011. The labeling medium was prepared by complexing the unlabeled cholesterol and BODIPY-cholesterol (20% of the total cholesterol) with methyl-β-cyclodextrin (CD) at a molar ratio of 1:40 (total cholesterol/CD). Unlabeled cholesterol and BODIPY-cholesterol were dissolved in chloroform and dried in a round bottom flask by rotor-evaporation in the dark to form a thin film. The cholesterol mixture was solubilized by adding 20 mM CD in MEM-HEPES buffer. The suspension was sonicated in a water bath (37° C.) for at 1 h, stirred at 37° C. for 3 h, filtered using a 0.45-μm syringe filter, and diluted with an equal volume of MEM-HEPES buffer containing 4 μg/mL Sandoz ACAT (acyl-CoA:cholesterol acyltransferase) inhibitor (Sigma). The final concentrations of BODIPY-cholesterol, unlabeled cholesterol, CD, and ACAT inhibitor in the labeling medium were 0.025 mM, 0.1 mM, 10 mM, and […], respectively.
Preparation of efflux medium: Just before the initiation of the efflux assays, the human plasma frozen at −80° C. was thawed, and 80 μL of plasma was incubated with 20 μL of cyclic peptide stocks (peptide stocks were 1-3 mg/mL in 10% sucrose) or the vehicle (10% sucrose) at 37° C. for 30 min. The treated plasma samples (100 μL) were then incubated with 25% PEG 8000 solution in 200 mM glycine buffer, pH 8.5 (40 μL) to precipitate apoB-containing lipoproteins (Asztalos et al., J. Lipid Res. 46, 2246-2253, 2005). After a 15-min incubation, the precipitate was removed by high-speed centrifugation (13,000 rpm, 10 min, 4° C.), and the supernatant (60 μL) was immediately diluted with MEM-HEPES buffer (1.5 mL) to give ˜2% whole plasma. This solution, containing the peptide remodeled-HDL lipoprotein fraction as cholesterol acceptors, was used as the efflux medium.
Cholesterol efflux from mouse macrophage cells: Mouse macrophage J774A.1 cells (TIB-67; American Type Culture Collection, Manassas, Va.) were seeded in 12-well culture plate at 3×10^5 cells/mL and cultured to 80-90% confluency in DMEM with 10% FBS at 5% CO2. Cells were rinsed twice with MEM-HEPES, incubated for 1 h with 0.25 ml of labeling medium containing CD/BODIPY-cholesterol/unlabeled cholesterol and 2 μg/mL Sandoz ACAT inhibitor, followed by washing twice with MEM-HEPES. The cholesterol-laden cells were equilibrated for 18 h in DMEM containing 5% LPDS, […] Sandoz ACAT inhibitor, and 0.3 mM Cpt-cAMP. After equilibration, the cells were washed twice with MEM-HEPES and incubated with 0.25 mL of efflux media for 4 h. At the end of the incubation time, the efflux media was removed and centrifuged (1200 rpm, 10 min) to remove floating cells, and the fluorescence intensity of 100 μL cell-free media was recorded using a Tecan GENios plate reader (excitation 485 nm, emission 535 nm). The obtained signals were background subtracted using the signal from unlabeled cells. The cell monolayers were rinsed twice with ice-cold MEM-HEPES and solubilized with 0.25 mL 1% cholic acid by shaking on a plate shaker for at least 4 h at room temperature; then the fluorescence intensity of 100 μL cell lysate was recorded and background subtracted using the signal from unlabeled cell lysate. […]

CC(C)C[C@@H]1NC(=O)[C@@H](Cc2c[nH]c3ccccc23)NC(=O)[C@H](CCCNC(=N)N)NC(=O)[C@@H](CCC(=O)O)NC(=O)[C@H](CCC(N)=O)NC(=O)[C@@H](CCC(=O)O)NC(=O)[C@H](CCCNC(=N)N)NC(=O)[C@@H](Cc2c[nH]c3ccccc23)NC1=O [SEQ ID NO:1, c[wLwReQeR]] (cyclo([dW]L[dW]R[dE]Q[dE]R))
toxicity based on the cellular morphology and density (J774 cells in the efflux assay): did not appear to be toxic
promotion of cellular cholesterol efflux (in words) (J774 cells, 2% apoB-depleted peptide-treated human plasma, 4 h, FIG. 2b): clear concentration dependency; also recorded: only marginally less effective than the α-helical apoA-I mimetic 4F
